Experimental data: PubChem BioAssay (NCI)
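96-well plates; 48 h exposure; 5 concentrations. Endpoints by linear interpolation between flanking doses. Not reached: highest tested concentration assigned. The concentration for 50% growth inhibition is given as GI50. TGI denotes the concentration required for complete inhibition of growth.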

How the values were obtained:
Assay in all cases: inhibition of tumour cell growth, NCI panel, 48 h
[1] = test system: UO-31 renal
[2] = test system: 786-0 renal
[3] = test system: SR leukemia
[4] = test system: NCI-H460 lung
[5] = test system: RXF 393 renal
[6] = test system: HOP-92 NSCLC
[7] = test system: MDA-MB-231 breast
[8] = test system: HOP-62 NSCLC
[9] = test system: SW-620 colon
[10] = test system: HCT-116 colon
[11] = test system: MCF7 breast
[12] = test system: U251 CNS
[13] = test system: UACC-257 melanoma
[14] = test system: COLO 205 colon
[15] = test system: CAKI-1 renal
[16] = test system: IGROV1 ovarian
[17] = test system: MOLT-4 leukemia
[18] = test system: HCT-15 colon
[19] = test system: SK-MEL-5 melanoma
[20] = test system: UACC-62 melanoma
[21] = test system: EKVX NSCLC
[22] = test system: NCI-H23 lung
[23] = test system: OVCAR-8 ovarian
[24] = test system: SN12C renal
[25] = test system: ACHN renal
[26] = test system: OVCAR-3 ovarian
[27] = test system: SK-OV-3 ovarian
[28] = test system: HCC-2998 colon
[29] = test system: KM12 colon
[30] = test system: T-47D breast
[31] = test system: MDA-MB-435
[32] = test system: NCI-H226 lung
[33] = test system: PC-3 prostate
[34] = test system: OVCAR-5 ovarian
[35] = test system: LOX IMVI melanoma
[36] = test system: SF-539 CNS
[37] = test system: SNB-75 CNS
[38] = test system: TK-10 renal
[39] = test system: NCI/ADR-RES ovarian
[40] = test system: OVCAR-4 ovarian
[41] = test system: A549 NSCLC
[42] = test system: SNB-19 CNS
[43] = test system: SF-295 CNS
[44] = test system: NCI-H522 lung
[45] = test system: CCRF-CEM leukemia
[46] = test system: BT-549 breast
[47] = test system: MALME-3M melanoma
[48] = test system: HT29 colon
[49] = test system: DU-145 prostate
[50] = test system: HL-60(TB) leukemia
[51] = test system: M14 melanoma
[52] = test system: HS 578T breast
[53] = test system: A498 renal
[54] = test system: SF-268 CNS
[55] = test system: SK-MEL-2 melanoma
[56] = test system: RPMI-8226 leukemia
[57] = test system: SK-MEL-28 melanoma

Compound: O=C(O)c1ccc(NCc2nc3cc(Cl)c(Cl)cc3[nH]2)cc1
- GI50 [1]: > 100 µM
- TGI [1]: > 100 µM
- GI50 [2]: > 100 µM
- TGI [2]: > 100 µM
- GI50 [3]: 69.6 µM
- TGI [3]: > 100 µM
- GI50 [4]: > 100 µM
- TGI [4]: > 100 µM
- GI50 [5]: > 100 µM
- TGI [5]: > 100 µM
- GI50 [6]: > 100 µM
- TGI [6]: > 100 µM
- GI50 [7]: > 100 µM
- TGI [7]: > 100 µM
- GI50 [8]: > 100 µM
- TGI [8]: > 100 µM
- GI50 [9]: > 100 µM
- TGI [9]: > 100 µM
- GI50 [10]: > 100 µM
- TGI [10]: > 100 µM
- GI50 [11]: 6.03 µM
- TGI [11]: > 100 µM
- GI50 [12]: > 100 µM
- TGI [12]: > 100 µM
- GI50 [13]: 5.28 µM
- TGI [13]: 77.6 µM
- GI50 [14]: > 100 µM
- TGI [14]: > 100 µM
- GI50 [15]: > 100 µM
- TGI [15]: > 100 µM
- GI50 [16]: > 100 µM
- TGI [16]: > 100 µM
- GI50 [17]: > 100 µM
- TGI [17]: > 100 µM
- GI50 [18]: 96.9 µM
- TGI [18]: > 100 µM
- GI50 [19]: 93.4 µM
- TGI [19]: > 100 µM
- GI50 [20]: > 100 µM
- TGI [20]: > 100 µM
- GI50 [21]: > 100 µM
- TGI [21]: > 100 µM
- GI50 [22]: > 100 µM
- TGI [22]: > 100 µM
- GI50 [23]: > 100 µM
- TGI [23]: > 100 µM
- GI50 [24]: > 100 µM
- TGI [24]: > 100 µM
- GI50 [25]: > 100 µM
- TGI [25]: > 100 µM
- GI50 [26]: 60.7 µM
- TGI [26]: > 100 µM
- GI50 [27]: > 100 µM
- TGI [27]: > 100 µM
- GI50 [28]: 72.3 µM
- TGI [28]: > 100 µM
- GI50 [29]: > 100 µM
- TGI [29]: > 100 µM
- GI50 [30]: > 100 µM
- TGI [30]: > 100 µM
- GI50 [31]: > 100 µM
- TGI [31]: > 100 µM
- GI50 [32]: > 100 µM
- TGI [32]: > 100 µM
- GI50 [33]: > 100 µM
- TGI [33]: > 100 µM
- GI50 [34]: > 100 µM
- TGI [34]: > 100 µM
- GI50 [35]: > 100 µM
- TGI [35]: > 100 µM
- GI50 [36]: > 100 µM
- TGI [36]: > 100 µM
- GI50 [37]: > 100 µM
- TGI [37]: > 100 µM
- GI50 [38]: > 100 µM
- TGI [38]: > 100 µM
- GI50 [39]: > 100 µM
- TGI [39]: > 100 µM
- GI50 [40]: 40.9 µM
- TGI [40]: > 100 µM
- GI50 [41]: > 100 µM
- TGI [41]: > 100 µM
- GI50 [42]: > 100 µM
- TGI [42]: > 100 µM
- GI50 [43]: > 100 µM
- TGI [43]: > 100 µM
- GI50 [44]: 66.2 µM
- TGI [44]: > 100 µM
- GI50 [45]: > 100 µM
- TGI [45]: > 100 µM
- GI50 [46]: > 100 µM
- TGI [46]: > 100 µM
- GI50 [47]: 0.424 µM
- TGI [47]: 1.69 µM
- GI50 [48]: > 100 µM
- TGI [48]: > 100 µM
- GI50 [49]: > 100 µM
- TGI [49]: > 100 µM
- GI50 [50]: > 100 µM
- TGI [50]: > 100 µM
- GI50 [51]: > 100 µM
- TGI [51]: > 100 µM
- GI50 [52]: > 100 µM
- TGI [52]: > 100 µM
- GI50 [53]: > 100 µM
- TGI [53]: > 100 µM
- GI50 [54]: > 100 µM
- TGI [54]: > 100 µM
- GI50 [55]: 5.5 µM
- TGI [55]: 41.6 µM
- GI50 [56]: > 100 µM
- TGI [56]: > 100 µM
- GI50 [57]: 3.77 µM
- TGI [57]: > 100 µM
